Assay results as given in patent publication US6624317B1, “Taxoid conjugates as antimitotic and antitumor agents” (priority 2000, dated 2003).

Legend:
[1] = tested on: breast cell lines; assay: NCI human tumor cell lines, breast; type: cell-based; settings: average over all cell lines of the tumor type; data provided by the NCI
[2] = tested on: lung carcinoma (A-549); assay: in vitro cytotoxicity assay, A549; settings: read-out: Cytotoxicity (ED50) A549; A549; drug exposure 3 days; NA = not active
Description: (§1) Biological Assay. The in vitro cytotoxicity assay was carried out according to procedures described in Rubinstein et al. (P. Ferguson et al., Cancer Res. 1988, 48, 5956-5964). […] The human tumor cell line panel consisted of epiderimoid carcinoma of the nasopharynx (KB), lung carcinoma (A-549), ileocecal carcinoma (HCT-8), renal cancer (CAKI-1), breast cancer (MCF-7), melanoma cancer (SKMEL-2), and ovarian cancer (1A9). The drug resistant cell line panel consisted of three KB-derivatives, -7d, -CPT, and -VCR. The properties of these cells are described elsewhere (P. Ferguson et al., Cancer Res. 1988, 48, 5956-5964; D. Beidler et al., Cancer Res. 1996, 56, 345-353). […] They were a generous gift of Dr. P. Giannakakou (P. Giannakakou et al., J. Biol. Chem. 1997, 27, 17118-17125). Cells were cultured at 37° C. in RPMI-1640 with 100 ug/mL kanamycin and 10% (v/v) fetal bovine serum in a humidified atmosphere containing 5% CO2. Initial seeding densities varied among the cell lines to ensure a final absorbance of 1-2.5 A562 units. Drug exposure was for 3 days, and the ED50 value, the drug concentration that reduced the absorbance by 50%, was interpolated from dose-response data.

[3] = tested on: KB-7d; assay: cytotoxicity in drug resistant cell line KB-7d; type: cell-based, human; settings: KB-7d drug resistant KB derivative
Description: as §1
(§2) The newly synthesized taxoid-4′-O-demethyl epipodophyllotoxin conjugates were evaluated in house using standard cytotoxicity assays in human tumor (HTCL) and drug-resistant (DRCL) cell lines. Reference compounds were paclitaxel (1), cephalomannine (2), and epipodophyllotoxins [etoposide (5) and GL-331 (7), see FIG. 1]. The HTCL panel was comprised of KB, A549, HCT-8, CAKI-1, MCF-7, SK-MEL-2, and 1A9 cell lines. Two paclitaxel-resistant 1A9 sub-lines designated as PAX-10 and PAX-22 were also tested as part of the DRCL panel. Other resistant-cell lines were KB derivatives expressing various mechanisms or multi-drug resistance as described elsewhere (P. Ferguson et al., Cancer Res. 1988, 48, 5956-5964; D. Beidler et al., Cancer Res. 1996, 56, 345-353).

[4] = tested on: renal cell lines; assay: NCI human tumor cell lines, renal; type: cell-based; settings: average over all cell lines of the tumor type; data provided by the NCI
[5] = tested on: Colon cell lines; assay: NCI human tumor cell lines, colon; type: cell-based; settings: average over all cell lines of the tumor type; data provided by the NCI
[6] = tested on: ovarian cancer (1A9); assay: in vitro cytotoxicity assay, 1A9; settings: read-out: Cytotoxicity (ED50) 1A9 (OVCAR); 1A9 (OVCAR); drug exposure 3 days
Description: as §1

[7] = tested on: Non-small cell lung cancer cell lines; assay: NCI human tumor cell lines, NSCL; type: cell-based; settings: average over all cell lines of the tumor type; data provided by the NCI
[8] = tested on: Cellular protein-DNA complex formation; assay: Protein-linked DNA break assay (cellular protein-DNA complex formation); type: cell-based; settings: for Cellular protein-DNA complex formation: Etoposide given as 100, NA^1 not active at 50 uM, NA^2 not active at 100 uM
Excerpt: (§3) Protein-Linked DNA Break and Topoisomerase 11 Activity Assays. The procedures were done according to detailed published methods (K. Bastow et al., Bioorg. Med. Chem. 1997, 5, 1481-1488).

[9] = tested on: melanoma cell lines; assay: NCI human tumor cell lines, melanoma; type: cell-based; settings: average over all cell lines of the tumor type; data provided by the NCI
[10] = tested on: PAX-22; assay: cytotoxicity in paclitaxel-resistant 1A9 sub-line PAX-22; type: cell-based, human; settings: PAX-22 paclitaxel-resistant 1A9 sub-line
Description: as §1, §2

[11] = tested on: melanoma cancer (SKMEL-2); assay: in vitro cytotoxicity assay, SK-MEL-2; settings: read-out: Cytotoxicity (ED50) SK-MEL-2; SK-MEL-2; drug exposure 3 days; NA = not active
Description: as §1

[12] = tested on: Topoisomerase II; assay: Topoisomerase II activity assay (inhibition of topo II in vitro); type: biochemical; settings: NA^1 not active at 50 uM, NA^2 not active at 100 uM
Excerpt: as §3

[13] = tested on: epiderimoid carcinoma of the nasopharynx (KB); assay: in vitro cytotoxicity assay, KB; type: cell-based, human; settings: drug exposure 3 days
Description: as §1

[14] = tested on: breast cancer (MCF-7); assay: in vitro cytotoxicity assay, MCF-7; settings: read-out: Cytotoxicity (ED50) MCF-7; MCF-7; drug exposure 3 days
Description: as §1

[15] = tested on: ovarian cell lines; assay: NCI human tumor cell lines, ovarian; type: cell-based; settings: average over all cell lines of the tumor type; data provided by the NCI
[16] = tested on: approximately 60 human tumor cell lines; assay: NCI cytotoxicity evaluation in approximately 60 human tumor cell lines (overall); type: cell-based; settings: especially leukemia, colon, and prostate cell lines
[17] = tested on: leukemia cell lines; assay: NCI human tumor cell lines, leukemia; type: cell-based; settings: average over all cell lines of the tumor type; data provided by the NCI
[18] = tested on: ileocecal carcinoma (HCT-8); assay: in vitro cytotoxicity assay, HCT-8; settings: read-out: Cytotoxicity (ED50) HCT-8; HCT-8; drug exposure 3 days; NA = not active
Description: as §1

[19] = tested on: PAX-10; assay: cytotoxicity in paclitaxel-resistant 1A9 sub-line PAX-10; type: cell-based, human; settings: PAX-10 paclitaxel-resistant 1A9 sub-line
Description: as §1, §2

[20] = tested on: KB-VCR; assay: cytotoxicity in drug resistant cell line KB-VCR; type: cell-based, human; settings: KB-VCR drug resistant KB derivative
Description: as §1, §2

[21] = tested on: paclitaxel resistant cells; assay: cytotoxicity against paclitaxel resistant cells (overall); type: cell-based, human; settings: compared with the unconjugated components, Table 3
Description: as §1, §2

[22] = tested on: renal cancer (CAKI-1); assay: in vitro cytotoxicity assay, CAKI-1; settings: read-out: Cytotoxicity (ED50) CAKI-1; CAKI-1; drug exposure 3 days
Description: as §1

[23] = tested on: Central nervous system cancer cell lines; assay: NCI human tumor cell lines, CNS; type: cell-based; settings: average over all cell lines of the tumor type; data provided by the NCI
[24] = tested on: KB-CPT; assay: cytotoxicity in drug resistant cell line KB-CPT; type: cell-based, human; settings: KB-CPT drug resistant KB derivative
Description: as §1, §2

[25] = tested on: prostate cell lines; assay: NCI human tumor cell lines, prostate; type: cell-based; settings: average over all cell lines of the tumor type; data provided by the NCI
[26] = tested on: human tumor (HTCL) cell lines; assay: standard cytotoxicity assays in human tumor cell lines (HTCL panel, overall); settings: summary of Table 2
Description: as §1
The newly synthesized taxoid-4′-O-demethyl epipodophyllotoxin conjugates were evaluated in house using standard cytotoxicity assays in human tumor (HTCL) and drug-resistant (DRCL) cell lines. […]

| SMILES | EC50 [2] | Resistance Fold KB-7d [3] | log GI50 Colon [5] | EC50 [6] | log GI50 NSCL [7] | Cellular protein-DNA complex formation [8] | intracellular poisoning / stimulation of protein-DNA breaks in cells (in words) [8] | log GI50 melanoma [9] | Resistance Fold PAX-22 [10] | EC50 [11] | Inhibition of Topo II IC100 [12] | Cytotoxicity (ED50) KB [13] | EC50 [14] | log GI50 ovarian [15] | log GI50 leukemia [17] | EC50 [18] | Resistance Fold PAX-10 [19] | Resistance Fold KB-VCR [20] | activity against paclitaxel resistant cells (in words) [21] | EC50 [22] | further results |
| --- | --- | --- | --- | --- | --- | --- | --- | --- | --- | --- | --- | --- | --- | --- | --- | --- | --- | --- | --- | --- | --- |
| COc1cc([C@@H]2c3cc4c(cc3[C@@H](N=Cc3ccc(C(=O)O[C@@H](C(=O)O[C@H]5C[C@@]6(O)[C@@H](OC(=O)c7ccccc7)[C@@H]7[C@]8(OC(C)=O)CO[C@@H]8C[C@H](O)[C@@]7(C)C(=O)[C@H](OC(C)=O)C(=C5C)C6(C)C)[C@@H](NC(=O)c5ccccc5)c5ccccc5)cc3)[C@H]3COC(=O)[C@H]23)OCO4)cc(OC)c1O [Compound 12] | 210 nM | 1 | −7.20 | 30 nM | −6.58 | 8 +/− 2% | intracellular poisons | −6.29 | 17 | > 400 nM | 100 µM | 3 nM | 330 nM | −6.55 | −7.60 | 540 nM | 7 | 17 | enhanced activity against paclitaxel resistant cells | > 250 nM | log GI50 breast [1]: −6.56; log GI50 renal [4]: −6.13; inhibitory effects against NCI tumor cell lines (in words) [16]: strongest inhibitory effects against a variety of tumor cell lines; log GI50 CNS [23]: −6.93; Resistance Fold KB-CPT [24]: 1; log GI50 prostate [25]: −7.22 |
| COc1cc([C@@H]2c3cc4c(cc3[C@@H](Nc3ccc(N=Cc5ccc(C(=O)O[C@@H](C(=O)O[C@H]6C[C@@]7(O)[C@@H](OC(=O)c8ccccc8)[C@@H]8[C@]9(OC(C)=O)CO[C@@H]9C[C@H](O)[C@@]8(C)C(=O)[C@H](OC(C)=O)C(=C6C)C7(C)C)[C@@H](NC(=O)c6ccccc6)c6ccccc6)cc5)cc3)[C@H]3COC(=O)[C@H]23)OCO4)cc(OC)c1O [Compound 15] | 2800 nM | 1 | −5.12 | 300 nM | −5.50 | 25 +/− 11% | intracellular poisons | −5.01 | 8 | > 40000 nM | 100 µM | 230 nM | 1860 nM | −4.95 | −6.02 | > 100 nM | >17 | 8 | enhanced activity against paclitaxel resistant cells | > 4000 nM | cytotoxicity in human tumor cell lines (in words) [26]: exhibited different cytotoxic activity from both precursors; log GI50 CNS [23]: −5.54; Resistance Fold KB-CPT [24]: 1; log GI50 prostate [25]: −5.06 |
